Experimental data published in the supplement of paper PMC4862054.

Tests used:
Conditions in all cases: incubation time: 72 h
[1] = test system: SK-BR-3; assay: normalised response (% of control), CellTiter-Glo; higher = more viable cells (100 = DMSO, 0 = benzethonium chloride kill control)
Protocol: (§1)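 DSRT, 72 h incubation, CellTox Green / CellTiter-Glo readout. Signal is normalised to DMSO and benzethonium chloride controls. Value is the normalised response at dose 3.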

[2] = test system: MDA-MB-231; assay: as above
Protocol: as §1

[3] = test system: CAL-120; assay: as above
Protocol: as §1

[4] = test system: MDA-MB-468; assay: as above
Protocol: as §1

[5] = test system: MDA-MB-436; assay: as above
Protocol: as §1

[6] = test system: CAL-148; assay: as above
Protocol: as §1

[7] = test system: MCF-10A; assay: as above
Protocol: as §1

[8] = test system: BT-549; assay: as above
Protocol: as §1

[9] = test system: HCC1937; assay: as above
Protocol: as §1

[10] = test system: HCC1599; assay: as above
Protocol: as §1

[11] = test system: MDA-MB-453; assay: as above
Protocol: as §1

[12] = test system: CAL-51; assay: as above
Protocol: as §1

[13] = test system: Hs578T; assay: as above
Protocol: as §1

[14] = test system: DU-4475; assay: as above
Protocol: as §1

[15] = test system: BT-474; assay: as above
Protocol: as §1

[16] = test system: HDQ-P1; assay: as above
Protocol: as §1

[17] = test system: CAL-85-1; assay: as above
Protocol: as §1

[18] = test system: MFM-223; assay: as above
Protocol: as §1

[19] = test system: HCC1143; assay: as above
Protocol: as §1

[20] = test system: MDA-MB-231; assay: normalised response (% of control), CellTox Green; higher = less cell death (100 = DMSO, 0 = benzethonium chloride kill control)
Procedure, shortened: (§2)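 Two readouts were taken after 72 h: CellTox Green fluorescence (485/520 nm) first, then CellTiter-Glo luminescence after 10 min at room temperature. Breast cancer cell lines had been seeded as 20 µl suspension into 384-well plates holding compound at 5 concentrations in 10-fold steps across a compound-specific 10,000-fold range. Each value is a normalised signal at a single concentration, with plates scaled to 0.1 % DMSO (100) and a positive kill control (0).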

[21] = test system: CAL-120; assay: as above
Procedure, shortened: as §2

[22] = test system: MDA-MB-436; assay: as above
Procedure, shortened: as §2

[23] = test system: CAL-148; assay: as above
Procedure, shortened: as §2

[24] = test system: MCF-10A; assay: as above
Procedure, shortened: as §2

[25] = test system: BT-549; assay: as above
Procedure, shortened: as §2

[26] = test system: HCC1599; assay: as above
Procedure, shortened: as §2

[27] = test system: MDA-MB-453; assay: as above
Procedure, shortened: as §2

[28] = test system: CAL-51; assay: as above
Procedure, shortened: as §2

[29] = test system: DU-4475; assay: as above
Procedure, shortened: as §2

[30] = test system: BT-474; assay: as above
Procedure, shortened: as §2

[31] = test system: HDQ-P1; assay: as above
Procedure, shortened: as §2

[32] = test system: CAL-85-1; assay: as above
Procedure, shortened: as §2

[33] = test system: MFM-223; assay: as above
Procedure, shortened: as §2

[34] = test system: HCC1143; assay: as above
Procedure, shortened: as §2

[35] = test system: SK-BR-3; assay: normalised response (% of control), CellTiter-Glo; higher = more viable cells (100 = DMSO, 0 = benzethonium chloride kill control); remark: listed apart in the source
Procedure, shortened: as §2

[36] = test system: MDA-MB-231; assay: as above; remark: listed apart in the source
Procedure, shortened: as §2

[37] = test system: CAL-120; assay: as above; remark: listed apart in the source
Procedure, shortened: as §2

[38] = test system: MDA-MB-468; assay: as above; remark: listed apart in the source
Procedure, shortened: as §2

[39] = test system: MDA-MB-436; assay: as above; remark: listed apart in the source
Procedure, shortened: as §2

[40] = test system: CAL-148; assay: as above; remark: listed apart in the source
Procedure, shortened: as §2

[41] = test system: MCF-10A; assay: as above; remark: listed apart in the source
Procedure, shortened: as §2

[42] = test system: BT-549; assay: as above; remark: listed apart in the source
Procedure, shortened: as §2

[43] = test system: HCC1937; assay: as above; remark: listed apart in the source
Procedure, shortened: as §2

[44] = test system: HCC1599; assay: as above; remark: listed apart in the source
Procedure, shortened: as §2

[45] = test system: MDA-MB-453; assay: as above; remark: listed apart in the source
Procedure, shortened: as §2

[46] = test system: CAL-51; assay: as above; remark: listed apart in the source
Procedure, shortened: as §2

[47] = test system: Hs578T; assay: as above; remark: listed apart in the source
Procedure, shortened: as §2

[48] = test system: DU-4475; assay: as above; remark: listed apart in the source
Procedure, shortened: as §2

[49] = test system: BT-474; assay: as above; remark: listed apart in the source
Procedure, shortened: as §2

[50] = test system: HDQ-P1; assay: as above; remark: listed apart in the source
Procedure, shortened: as §2

[51] = test system: CAL-85-1; assay: as above; remark: listed apart in the source
Procedure, shortened: as §2

[52] = test system: MFM-223; assay: as above; remark: listed apart in the source
Procedure, shortened: as §2

[53] = test system: HCC1143; assay: as above; remark: listed apart in the source
Procedure, shortened: as §2

[54] = test system: MDA-MB-468; assay: normalised response (% of control), CellTox Green; higher = less cell death (100 = DMSO, 0 = benzethonium chloride kill control)
Procedure, shortened: as §2

[55] = test system: HCC1937; assay: as above
Procedure, shortened: as §2

[56] = test system: Hs578T; assay: as above
Procedure, shortened: as §2

## C[C@]1(O)C[C@@H](c2nc(-c3ccc4ccc(-c5ccccc5)nc4c3)c3c(N)nccn32)C1 [Linsitinib] (100 nM)
[1]
  normalised response: 84.8%
[2]
  normalised response: 93.9%
[3]
  normalised response: 90.4%
[4]
  normalised response: 85.6%
[5]
  normalised response: 88.9%
[6]
  normalised response: 90%
[7]
  normalised response: 72.8%
[8]
  normalised response: 100%
[9]
  normalised response: 107%
[10]
  normalised response: 107%
[11]
  normalised response: 90.7%
[12]
  normalised response: 105%
[13]
  normalised response: 106%
[14]
  normalised response: 97.8%
[15]
  normalised response: 91.3%
[16]
  normalised response: 99.8%
[17]
  normalised response: 89.7%
[18]
  normalised response: 91.4%
[19]
  normalised response: 98.1%
[20]
  normalised response: 83.4%
[21]
  normalised response: 97.2%
[22]
  normalised response: 52.9%
[23]
  normalised response: 76.6%
[24]
  normalised response: 92.7%
[25]
  normalised response: 102%
[26]
  normalised response: 93.8%
[27]
  normalised response: 99.3%
[28]
  normalised response: 95.5%
[29]
  normalised response: 96.2%
[30]
  normalised response: 99.3%
[31]
  normalised response: 93.2%
[32]
  normalised response: 90.8%
[33]
  normalised response: 99.8%
[34]
  normalised response: 73%

## C[C@]1(O)C[C@@H](c2nc(-c3ccc4ccc(-c5ccccc5)nc4c3)c3c(N)nccn32)C1 [Linsitinib] (1000 nM)
[35]
  normalised response: 69.8%
[36]
  normalised response: 85.9%
[37]
  normalised response: 88%
[38]
  normalised response: 79.6%
[39]
  normalised response: 95.5%
[40]
  normalised response: 101%
[41]
  normalised response: 48.5%
[42]
  normalised response: 88.6%
[43]
  normalised response: 98.9%
[44]
  normalised response: 92%
[45]
  normalised response: 83.8%
[46]
  normalised response: 94%
[47]
  normalised response: 101%
[48]
  normalised response: 92.5%
[49]
  normalised response: 78%
[50]
  normalised response: 76.8%
[51]
  normalised response: 85.5%
[52]
  normalised response: 94.5%
[53]
  normalised response: 88.7%
[20]
  normalised response: 102%
[21]
  normalised response: 94.9%
[54]
  normalised response: 75.2%
[22]
  normalised response: 73.8%
[23]
  normalised response: 105%
[24]
  normalised response: 75%
[25]
  normalised response: 108%
[55]
  normalised response: 124%
[26]
  normalised response: 94.6%
[27]
  normalised response: 102%
[28]
  normalised response: 104%
[56]
  normalised response: 93.5%
[29]
  normalised response: 94.9%
[30]
  normalised response: 91%
[31]
  normalised response: 87.9%
[32]
  normalised response: 97.3%
[33]
  normalised response: 96.5%
[34]
  normalised response: 76.7%

## Cc1ccc([N+](=O)[O-])cc1S(=O)(=O)N(C)/N=C/c1cnc2ccc(Br)cn12 [PIK-75] (1000 nM)
[35]
  normalised response: 0.25%
[36]
  normalised response: 1.8%
[37]
  normalised response: 28.5%
[38]
  normalised response: 2.19%
[39]
  normalised response: 15.9%
[40]
  normalised response: 48.8%
[41]
  normalised response: 1.81%
[42]
  normalised response: 2.37%
[43]
  normalised response: 21.6%
[44]
  normalised response: 6.38%
[45]
  normalised response: 4.17%
[46]
  normalised response: 11.5%
[47]
  normalised response: 3.83%
[48]
  normalised response: 4.76%
[49]
  normalised response: 9.85%
[50]
  normalised response: 16.7%
[51]
  normalised response: 1.64%
[52]
  normalised response: 7.31%
[53]
  normalised response: 13.3%
[20]
  normalised response: -17.8%
[21]
  normalised response: 86.8%
[54]
  normalised response: -15.6%
[22]
  normalised response: 102%
[23]
  normalised response: 86.7%
[24]
  normalised response: -12.4%
[25]
  normalised response: 35.8%
[55]
  normalised response: 99.3%
[26]
  normalised response: 62.1%
[27]
  normalised response: 61.6%
[28]
  normalised response: 70.6%
[56]
  normalised response: 42.7%
[29]
  normalised response: 79%
[30]
  normalised response: 6.93%
[31]
  normalised response: 38.4%
[32]
  normalised response: -12.6%
[33]
  normalised response: 44.6%
[34]
  normalised response: 56.9%

## CC(=O)c1c(C)c2cnc(Nc3ccc(N4CCNCC4)cn3)nc2n(C2CCCC2)c1=O [Palbociclib] (1000 nM)
[35]
  normalised response: 75.9%
[36]
  normalised response: 84%
[37]
  normalised response: 84.6%
[38]
  normalised response: 86.7%
[39]
  normalised response: 96.6%
[40]
  normalised response: 86.2%
[41]
  normalised response: 82.5%
[42]
  normalised response: 102%
[43]
  normalised response: 94.8%
[44]
  normalised response: 91.6%
[45]
  normalised response: 102%
[46]
  normalised response: 103%
[47]
  normalised response: 93.3%
[48]
  normalised response: 94.4%
[49]
  normalised response: 78.1%
[50]
  normalised response: 105%
[51]
  normalised response: 104%
[52]
  normalised response: 72.6%
[53]
  normalised response: 80.3%
[20]
  normalised response: 109%
[21]
  normalised response: 102%
[54]
  normalised response: 167%
[22]
  normalised response: 100%
[23]
  normalised response: 89.8%
[24]
  normalised response: 105%
[25]
  normalised response: 109%
[55]
  normalised response: 102%
[26]
  normalised response: 98.1%
[27]
  normalised response: 101%
[28]
  normalised response: 126%
[56]
  normalised response: 108%
[29]
  normalised response: 99%
[30]
  normalised response: 95.2%
[31]
  normalised response: 103%
[32]
  normalised response: 114%
[33]
  normalised response: 98.4%
[34]
  normalised response: 70.3%

## COc1cc(F)c(F)c(Nc2ccc(I)cc2F)c1NS(=O)(=O)C1(C[C@H](O)CO)CC1 [Refametinib] (1000 nM)
[35]
  normalised response: 82.4%
[36]
  normalised response: 59.4%
[37]
  normalised response: 66.1%
[38]
  normalised response: 72.7%
[39]
  normalised response: 78.4%
[40]
  normalised response: 89.2%
[41]
  normalised response: 28.3%
[42]
  normalised response: 95.7%
[43]
  normalised response: 79.4%
[44]
  normalised response: 116%
[45]
  normalised response: 96.3%
[46]
  normalised response: 99.3%
[47]
  normalised response: 80.1%
[48]
  normalised response: 0.17%
[49]
  normalised response: 62.4%
[50]
  normalised response: 54.5%
[51]
  normalised response: 52.2%
[52]
  normalised response: 75.9%
[53]
  normalised response: 77.2%
[20]
  normalised response: 39.2%
[21]
  normalised response: 86.8%
[54]
  normalised response: 120%
[22]
  normalised response: 97.5%
[23]
  normalised response: 99.3%
[24]
  normalised response: 92.6%
[25]
  normalised response: 115%
[55]
  normalised response: 113%
[26]
  normalised response: 95.8%
[27]
  normalised response: 106%
[28]
  normalised response: 101%
[56]
  normalised response: 109%
[29]
  normalised response: 57.4%
[30]
  normalised response: 99.7%
[31]
  normalised response: 82.9%
[32]
  normalised response: 46.6%
[33]
  normalised response: 99.6%
[34]
  normalised response: 70.5%
